Among the data in DBAASP are MIC values, retold here.

Among the test systems are Staphylococcus aureus MR; Neisseria meningitidis; Escherichia coli; Salmonella typhimurium; Staphylococcus aureus; Yersinia pestis; Pseudomonas aeruginosa; Yersinia ruckeri VI-3629; Escherichia coli 363; Bacillus subtilis; Aerococcus viridans; Micrococcus luteus; Vibrio anguillarum; Vibrio harveyi; Aeromonas hydrophila.
Experiment in all cases: ≥ marks a high value that may be exact or a test limit, other limits are often not marked, values filed in µg/mL are converted to µM
Test [1] concerns Staphylococcus aureus ATCC 25923.
The subject of test [2] is Xanthomonas axonopodis pv. citri.
In test [3] the test system is Escherichia coli ATCC 8739.
The subject of test [4] is Pseudomonas aeruginosa ATCC 27853.
Test [5] has as its system Staphylococcus aureus ATCC 29313.
Test [6] deals with Escherichia coli ATCC 25922.
In test [7] the test system is Mycobacterium tuberculosis.
The test system of test [8] is Micrococcus luteus ATCC 4698.
For test [9], the system named is Planococcus citreus NCIMB 1493.
Test [10] has as its system Vibrio anguillarum NCIMB 2129.
In test [11] the test system is Staphylococcus aureus ATCC 9144.
The test system of test [12] is Vibrio anguillarum NCIMB 2133.
For test [13], the system named is Corynebacterium glutamicum ATCC 13032.
Test [14] concerns Psychrobacter immobilis NCIMB 308.
In test [15] the test system is Vibrio anguillarum VI-F258-3.
Test [16] has as its system Yersinia ruckeri NCIMB 2196.
Test [17] has as its system Aeromonas salmonicida NCIMB 1102.
Test [18] concerns Escherichia coli CIB 84492.
The subject of test [19] is Staphylococcus aureus CIB 85462.
In test [20] the test system is Klebsiella pneumoniae ATCC 700603.
For test [21], the system named is Staphylococcus epidermidis RP62A.
In test [22] the test system is Acinetobacter baumannii NM8.
Test [23] concerns Candida albicans ATCC 90028.
In test [24] the test system is Stenotrophomonas maltophilia B32/4.
Test [25] relates to Staphylococcus epidermidis RP62A/1.
In test [26] the test system is Escherichia coli ATCC 25726.
Test [27] has as its system Staphylococcus haemolyticus.

In brackets after ≈: the same amount, converted by molar mass. A value given as a limit tells only on which side of the number the result lay.

For orientation: MIC means the least concentration at which growth counts as inhibited. Low values mean greater potency, high ones weaker potency. Regarding `CC(C)C[C@H](NC(=O)[C@H](C)NC(=O)[C@@H](NC(=O)[C@H](CCCCN)NC(=O)CNC(=O)[C@@H](NC(=O)[C@@H](NC(=O)[C@H](CCCCN)NC(=O)CNC(=O)[C@H](CC(C)C)NC(=O)[C@H](CO)NC(=O)[C@H](CCCCN)NC(=O)[C@H](CC(C)C)NC(=O)[C@H](CCCCN)NC(=O)[C@H](CC(=O)O)NC(=O)[C@H](CC(C)C)NC(=O)[C@H](Cc1c[nH]c2ccccc12)NC(=O)[C@H](C)N)C(C)C)C(C)C)C(C)C)C(=O)NCC(=O)N[C@H](C(=O)N[C@@H](C)C(=O)N[C@@H](CCC(N)=O)C(=O)N[C@@H](CC(N)=O)C(=O)N[C@@H](Cc1ccc(O)cc1)C(=O)N[C@@H](CC(C)C)C(=O)N[C@@H](CC(N)=O)C(=O)N1CCC[C@H]1C(=O)N[C@@H](CCC(N)=O)C(=O)N[C@@H](CCC(N)=O)C(=O)O)C(C)C` [AWLDKLKSLGKVVGKVALGVAQNYLNPQQ], the MIC in test [1] was 1.27 µM (≈ 4 µg/mL); in [2], 2 µM (≈ 6.28 µg/mL); in [3] it was 1.27 µM (≈ 4 µg/mL); in test [4], 10 µM (≈ 31.4 µg/mL); in test [5] it was 20 µM (≈ 62.8 µg/mL); in test [6], 5 µM (≈ 15.7 µg/mL).

Take `CC[C@H](C)[C@H](NC(=O)CNC(=O)CNC(=O)[C@H](CCSC)NC(=O)[C@H](CC(C)C)NC(=O)[C@H](CCC(=O)O)NC(=O)[C@H](CCCN=C(N)N)NC(=O)CNC(=O)[C@H](CCCN=C(N)N)NC(=O)[C@H](CCSC)NC(=O)CNC(=O)[C@@H](NC(=O)[C@H](CCCN=C(N)N)NC(=O)[C@H](CC(C)C)NC(=O)[C@@H](N)CS)[C@@H](C)CC)C(=O)NCC(=O)N[C@@H](CCCCN)C(=O)N[C@H](C(=O)N[C@@H](CCSC)C(=O)O)[C@@H](C)O` [CLRIGMRGRELMGGIGKTM]: the MIC against Staphylococcus aureus MR is at least 144 µM; against Neisseria meningitidis it was at least 144 µM; with Escherichia coli, 144 µM (≈ 300 µg/mL); in the test with Salmonella typhimurium it was at least 144 µM; in [7] it was at least 144 µM; in the test on Staphylococcus aureus, 144 µM (≈ 300 µg/mL). Moreover, the MIC in the test with Yersinia pestis is at least 144 µM; in the test on Pseudomonas aeruginosa, 144 µM (≈ 300 µg/mL).

With `CC[C@H](C)[C@H](NC(=O)[C@H](CC(C)C)NC(=O)CNC(=O)[C@@H](NC(=O)[C@@H](NC(=O)[C@H](Cc1cnc[nH]1)NC(=O)[C@H](Cc1cnc[nH]1)NC(=O)[C@H](CC(C)C)NC(=O)[C@@H](N)Cc1ccccc1)[C@@H](C)CC)C(C)C)C(=O)N[C@@H](Cc1cnc[nH]1)C(=O)N[C@@H](Cc1cnc[nH]1)C(=O)NCC(=O)N[C@@H](CCCCN)C(=O)N[C@@H](CC(C)C)C(=O)N[C@@H](CC(=O)O)C(=O)N[C@@H](CCSC)C(=O)N[C@@H](Cc1ccc(O)cc1)C(=O)N[C@@H](CCCN=C(N)N)C(=O)N[C@@H](CO)C(=O)N[C@@H](CC(N)=O)C(=O)N[C@@H](CC(N)=O)C(=O)O` [FLHHIVGLIHHGKLDMYRSNN], the MIC (in test [8]; in test [9]; in test [10]; against Yersinia ruckeri VI-3629; in [11]; in test [12]) was 10 µM (≈ 25 µg/mL) each time. The MIC in test [13] is 10 µM (≈ 25 µg/mL); in test [14] it was 10 µM (≈ 25 µg/mL); in test [15] it was 10 µM (≈ 25 µg/mL); in test [16], 10 µM (≈ 25 µg/mL); in test [17] it was 10 µM (≈ 25 µg/mL); in [6], above 10 µM.

For the molecule `CC[C@H](C)[C@@H]1NC(=O)[C@H](CC(C)C)NC(=O)[C@@H](NC(=O)[C@H](Cc2ccccc2)NC(=O)[C@@H](NC(=O)[C@@H](NC(=O)[C@@H]2CCCN2C(=O)[C@@H](NC(=O)[C@@H](NC(=O)[C@H](CCCCN)NC(=O)[C@H](C)NC(=O)[C@H](C)NC(=O)[C@@H](NC(=O)[C@H](CCCN=C(N)N)NC(=O)[C@H](CC(C)C)NC(=O)[C@@H](NC(=O)[C@H](C)NC(=O)[C@@H]2CCCN2C(=O)[C@H](CC(C)C)NC(=O)[C@@H](N)Cc2ccccc2)C(C)C)C(C)C)C(C)C)C(C)C)[C@@H](C)O)C(C)C)CSSC[C@@H](C(=O)O)NC(=O)[C@H](CCCCN)NC(=O)[C@H](CCCCN)NC(=O)[C@H](CO)NC1=O` [FLPAVLRVAAKVVPTVFCLISKKC], the MIC is 24.6 µM (≈ 64 µg/mL) in [18], 6.15 µM (≈ 16 µg/mL) in test [1], 3.07 µM (≈ 7.99 µg/mL) in [19] and 49.2 µM (≈ 128 µg/mL) in test [6].

On to `CC[C@H](C)[C@H](N)C(=O)N[C@@H](CC(C)C)C(=O)NCC(=O)N[C@@H](CCCCN)C(=O)N[C@@H](CC(C)C)C(=O)N[C@@H](CC(C)C)C(=O)N[C@@H](CO)C(=O)N[C@H](C(=O)N[C@@H](C)C(=O)N[C@@H](C)C(=O)NCC(=O)N[C@@H](CC(C)C)C(=O)N[C@@H](CC(C)C)C(=O)N[C@@H](CO)C(=O)N[C@@H](CCCCN)C(=O)N[C@@H](CC(C)C)C(N)=O)[C@@H](C)O` [ILGKLLSTAAGLLSKL], for which the MIC in test [1] is 32 µM (≈ 51.1 µg/mL); in [20], above 128 µM; in test [21] it was 16 µM (≈ 25.6 µg/mL); in [22], at least 128 µM; in test [23], at least 128 µM; in [24] it was at least 128 µM. Moreover, the MIC is 8 µM (≈ 12.8 µg/mL) in [25], above 128 µM in test [4] and at least 256 µM in test [26].

With `CC[C@H](C)[C@H](N)C(=O)N1CCC[C@H]1C(=O)N[C@@H](C)C(=O)N[C@@H](CCSC)C(=O)N[C@@H](CCC(=O)O)C(=O)N1CCC[C@H]1C(=O)N[C@@H](C)C(=O)N[C@@H](C)C(=O)N[C@@H](CCCN=C(N)N)C(=O)N[C@H](C(=O)N[C@@H](CCCCN)C(=O)N[C@@H](CCCN=C(N)N)C(=O)N[C@@H](CO)C(=O)N1CCC[C@H]1C(=O)NCC(=O)N[C@@H](Cc1ccc(O)cc1)C(=O)NCC(=O)NCC(=O)N[C@H]1CSSC[C@@H](C(=O)NCC(=O)NCC(=O)N[C@@H](Cc2ccc(O)cc2)C(=O)NCC(=O)O)NC(=O)[C@H](C)NC(=O)[C@H](Cc2c[nH]c3ccccc23)NC(=O)[C@H](CCCN=C(N)N)NC(=O)[C@@H]2CCCN2C(=O)[C@H](CO)NC1=O)C(C)C` [IPAMEPAARVKRSPGYGGCSPRWACGGYG], the MIC against Escherichia coli 363 is at least 50 µM; in the test with Bacillus subtilis, at least 50 µM; against Aerococcus viridans, 12.5 µM (≈ 37.4 µg/mL); in test [27], at least 50 µM; against Micrococcus luteus it was 25 µM (≈ 74.8 µg/mL); against Vibrio anguillarum it was at least 50 µM. In addition, the MIC against Vibrio harveyi and in the test on Aeromonas hydrophila was at least 50 µM each time.
